Here are results for one compound from patent publication US20130115624A1, “Methods To Identify Modulators” (Givaudan S.A., priority 2010, published 2013).

In this experiment the test system is Sham Transfected HEK293T/G16gust44 cells. As for the experimental part:
HEK293T/G16gust44 cells were used; they were formed as described in WO 2004/055048. The host cell line HEK-293T is commercially available from the American Tissue Culture Collection (ATCC), ATCC®#CRL-11268.
On day 0, the HEK293T/G16gust44 cells were plated in 96-well black wall, clear-bottom plates at a density of 15,000 cells per well and grown overnight in growth media (Dulbecco's modified Eagle's medium (DMEM) with 10% (v/v) heat-inactivated fetal bovine serum, 2 mM L-glutamine, 100 units/ml penicillin, 100 μg/ml streptomycin).
On day 1, the media was changed to an antibiotic-free and serum-free DMEM, and the cells were transfected with Lipofectamine 2000 (Invitorgen) according to the manufacturer's recommendations.
Per well of a 96-well plate, 150 ng of vector DNA (TAS2R41 expression vectors from example 1) was diluted in 12.5 μl of DMEM. In a second tube, 0.3 μl of Lipofectamine 2000 was diluted in 12.5 μl of DMEM and incubated for 5 min at room temperature. After the 5 min, both solutions were mixed and incubated for 20 min at RT.
The growth medium in the plate was exchanged with 50 μl of DMEM and 25 μl of the lipofectamine/DNA mixture (formed in the step above) and the cells were incubated for a further 3-4 hours at 37° in a humidified atmosphere. This mixture was then replaced with an antibiotic-free, serum-containing DMEM.
The above procedure was also carried out for HEK293T/G16gust44 cells formed as described in WO 2004/055048 with the exception that no DNA was added during the process (these cells are termed Sham transfected cells);
Each sample (receptors as well as controls) contained a final concentration of 0.02% Dimethyl sulphoxide (DMSO) to allow for comparability of all examples below.
On day 0, the HEK293T cells formed as described in example 2, were seeded in antibiotic-free growth medium (standard DMEM with 10% (v/v) heat-inactivated fetal bovine serum, 2 mM L-glutamine […]) into black wall/clear bottom 96-well plates, coated with poly(ethylenimine) (0.005% v/v) at a concentration of 15,000 cells per well and incubated for 48 hours in humidified atmosphere (37° C., 5% CO2).
Prior to performing the assay, the growth medium was discarded and the cells were left in a humidified atmosphere (37° C., 5% CO2) for 1 hour with 50 μl of loading buffer consisting of 1.5 μM Fluo-4 AM and […] probenicid (Sigma-Aldrich, St. Louis, Mo., US) in DMEM.
Following this the 96-well plate was washed 5 times with 100 μl of assay buffer (130 mM NaCl, 5 mM KCl, 10 mM 4-(2-hydroxyethyl)-1-piperazineethanesulfonic acid (HEPES), 2 mM CaCl2, and 5 mM dextrose, pH 7.4) per well, using an automated plate washer (BioTek).
The plate was then further incubated for 30 minutes at room temperature in the dark to allow for complete de-esterification of the Fluo-4. Afterwards the plate was washed 5 times with 100 μl of assay buffer per well, and reconstituted with 100 μl of assay buffer per well.
Cyclamate solutions ranging in concentration from 250 mM to 800 mM were prepared in assay buffer.
To test receptor activation 20 μl of one of these cyclamate test solutions was added to the assay buffer of at least one well of the 96 well plate. This step was repeated until all cyclamate solutions of differing concentrations had been added to at least one well. Care was taken to ensure that only one cyclamate solution was added per well. The resulting cyclamate concentrations in the well plates ranged in concentration from 25 mM to 80 mM (This is due to the dilution of the cyclamate solution in the assay buffer present in the well).
For assay reading, the plate was placed in a Fluorometric Imaging Plate Reader (FLIPR) (FLIPR-TETRA™, Molecular Devices, Sunnyvale, Calif., US).

Read-outs that look alike come from different tables or passages of the source.

Take `O=S(=O)(O)NC1CCCCC1` [Cyclamate, cyclamate]: the “Cyclamate Average ΔF/F0” value (25 mM cyclamate in well) was 0.1588; the “Cyclamate Average ΔF/F0” value (30 mM cyclamate in well) was found to be 0.1665; the “Cyclamate Average ΔF/F0” value (35 mM cyclamate in well) was 0.1676; the “Cyclamate Average ΔF/F0” value (40 mM cyclamate in well) was 0.1718; the “Cyclamate Average ΔF/F0” value (45 mM cyclamate in well) turned out to be 0.1765; the “Cyclamate Average ΔF/F0” value (50 mM cyclamate in well) is given as 0.1676. Also, the “Cyclamate Average ΔF/F0” value was determined as 0.1682 (55 mM cyclamate in well); 0.1453 (60 mM cyclamate in well); 0.1382 (65 mM cyclamate in well); 0.1529 (70 mM cyclamate in well); 0.1329 (75 mM cyclamate in well); 0.1465 (80 mM cyclamate in well).
